The values that follow come from patent US8536187B2 (Gilead Sciences, Inc., priority 2008, dated 2013).

The test system of series [1] is HCV replicon in human hepatoma Huh-7 cell line. Nature of the series: Anti-HCV replicon assay, EC50 (luciferase luminescence). Type of series: cell-based. The note with it: Hepatitis C virus, Huh-7, 72 h. Put shortly:
(§1)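 Huh-7 cells carrying HCV replicon (6000/well) incubated with serially diluted compound, 0.5% DMSO final, 3 days at 37° C, 5% CO2. EC50 from luciferase luminescence after 30 min lysis/substrate at room temperature; CC50 from CellTiter-Glo luminescence after 10 min at room temperature.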
On the technique in general: A replicon is a self-replicating genome or part of one, used to study replication in cells.

Series [2] can be described thus: CC50 assay (CellTiter-Glo) in Huh-7 HCV replicon cells. Type of series: cell-based. The note with it: human. Put shortly:
as §1

Each structure is given as a SMILES string.

For the compound `CCOc1ccc(-c2ccc3nc(NCc4cc(Cl)cc(S(N)(=O)=O)c4)nc(NCC(F)(F)F)c3n2)cn1` [Example 233, 3-chloro-5-((6-(6-ethoxypyridin-3-yl)-4-(2,2,2-trifluoroethylamino)pyrido [3,2-d]pyrimidin-2-ylamino)methyl)benzenesulfonamide], in series [1], the EC50 (commonly the midpoint of the concentration-response curve) is under 100 nM. Besides, the CC50 (as a rule, the concentration giving 50% cytotoxicity) at 3 days in series [2] (Table 2, 3 days incubation) lay within 1000 to 10000 nM.
Regarding `C[C@@H](Nc1nc(NC2(C(F)(F)F)CCC2)c2nc(-c3ccc(F)cc3)ccc2n1)c1ccc(S(N)(=O)=O)cc1` [Example 72, (R)-4-(1-(6-(4-fluorophenyl)-4-(1-(trifluoromethyl)cyclo-butylamino)pyrido[3,2-d]pyrimidin-2-ylamino)ethyl) benzenesulfonamide], the EC50 in series [1] was 250 to 2000 nM. For the same compound, the CC50 at 3 days in series [2] (Table 2, 3 days incubation) is over 10000 nM.
`NS(=O)(=O)c1cc(CNc2nc(NC3(C(F)(F)F)CC3)c3nc(-c4ccc(F)cc4)ccc3n2)ccc1C(F)(F)F` [Example 118, 5-((6-(4-fluorophenyl)-4-(1-(trifluoromethyl)cyclopropyl-amino)pyrido[3,2-d]pyrimidin-2-ylamino)methyl)-2-(trifluoro-methyl)benzenesulfonamide] came in with an EC50 in series [1] of 250 to 2000 nM. Moreover, the CC50 at 3 days in series [2] (Table 2, 3 days incubation) was over 10000 nM.
In turn, `NS(=O)(=O)c1cc(Cl)cc(CNc2nc(NCC(F)(F)F)c3nc(C#CC4CC4)ccc3n2)c1` [Example 280, 3-chloro-5-((6-(2-cyclopropyl-ethynyl)-4-(2,2,2-trifluoro-ethylamino)pyrido[3,2-d]pyrimidin-2-ylamino)methyl) benzenesulfonamide] returned an EC50 in series [1] of under 100 nM. This compound also returned a CC50 at 3 days in series [2] (Table 2, 3 days incubation) of over 10000 nM.
The compound `O=C1NCCN1c1ccc(-c2ccc3nc(NCc4ccc(-n5cncn5)cc4)nc(NC4(C(F)(F)F)CC4)c3n2)cc1` [Example 129, 1-(4-(2-(4-(1H-1,2,4-triazol-1-yl)benzylamino)-4-(1-(trifluoromethyl)cyclopropyl-amino)pyrido[3,2-d]pyrimidin-6-yl)phenyl)imidazolidin-2-one] had an EC50 in series [1] of under 100 nM. This compound also yielded a CC50 at 3 days in series [2] (Table 2, 3 days incubation) of under 1000 nM.
Taken in the same sequence, the figures for `c1ncn(-c2ccc(CNc3nc(OC4CC4)c4nc(-c5ccc(OC6CCC6)nc5)ccc4n3)cc2)n1` [Example 251, N-(4-(1H-1,2,4-triazol-1-yl)benzyl)-6-(6-cyclobutoxy-pyridin-3-yl)-4-cyclopropoxy-pyrido[3,2-d]pyrimidin-2-amine] were 100 to 250 nM and 1000 to 10000 nM.
In turn, `Cc1cc(S(N)(=O)=O)ccc1C(C)Nc1nc(NCC(F)(F)F)c2nc(-c3ccc(F)cc3)ccc2n1` (centres unmarked) [Example 10, 4-{1-[6-(4-Fluoro-phenyl)-4-(2,2,2-trifluoro-ethylamino)-pyrido[3,2-d]pyrimidin-2-ylamino]-ethyl}-3-methyl-benzenesulfonamide] gave an EC50 in series [1] of 100 to 250 nM. This compound gave a CC50 at 3 days in series [2] (Table 1, 3 days incubation) of under 10000 nM.
Compound `C#Cc1ccc2nc(NCc3ccc(-n4cncn4)cc3)nc(N[C@@H](C)C(F)(F)F)c2n1` [Example 291, (S)-N^2-(4-(1H-1,2,4-triazol-1-yl)benzyl)-6-ethynyl-N^4-(1,1,1-trifluoropropan-2-yl)pyrido [3,2-d]pyrimidine-2,4-diamine] gave a concentration giving a half-maximal response (EC50) in series [1] of under 100 nM. In addition, in series [2] (Table 2, 3 days incubation), the CC50 at 3 days was over 10000 nM.
As to `CC(C)(C)NS(=O)(=O)c1cc(F)cc(CNc2nc(NC3(C(F)(F)F)CC3)c3nc(-c4ccc(F)nc4)ccc3n2)c1` [Example 78, N-tert-butyl-3-fluoro-5-((6-(6-fluoropyridin-3-yl)-4-(1-(trifluoromethyl)cyclopropyl-amino)pyrido[3,2-d]pyrimidin-2-ylamino)methyl)benzene-sulfonamide], in series [1], the EC50 lay in the range of 100 to 250 nM. Moreover, the CC50 at 3 days in series [2] (Table 2, 3 days incubation) is over 10000 nM.
`CC(C)Oc1nc(NCc2ccc(-n3cncn3)cc2)nc2ccc(-c3cccc(S(C)(=O)=O)c3)nc12` [Example 198, N-(4-(1H-1,2,4-triazol-1-yl)benzyl)-4-isopropoxy-6-(3-(methylsulfonyl)phenyl)pyrido [3,2-d]pyrimidin-2-amine] gave an EC50 in series [1] of under 100 nM. Further, in series [2] (Table 2, 3 days incubation), the CC50 at 3 days was over 10000 nM.
`CS(=O)(=O)Nc1cc(F)cc(CNc2nc(NC3(C(F)(F)F)CC3)c3nc(-c4ccc(F)cc4)ccc3n2)c1` [Example 107, N-(3-fluoro-5-((6-(4-fluorophenyl)-4-(1-(trifluoromethyl)cyclopropyl-amino)pyrido[3,2-d]pyrimidin-2-ylamino)methyl)phenyl)methane-sulfonamide]: the EC50 in series [1] was in the range of 250 to 2000 nM. In series [2] (Table 2, 3 days incubation), this compound showed a CC50 at 3 days of over 10000 nM.
The like results for `COc1ccc(-c2ccc3nc(NCCS(N)(=O)=O)nc(NCC(F)(F)F)c3n2)cc1S(C)(=O)=O` [Example 172, 2-(6-(4-methoxy-3-(methylsulfonyl)phenyl)-4-(2,2,2-trifluoroethylamino)pyrido[3,2-d]pyrimidin-2-ylamino)ethanesulfonamide] were, in that order, 100 to 250 nM and over 10000 nM.
Take `C[C@H](Cn1cncn1)Nc1nc(NCC(F)(F)F)c2nc(-c3ccc(OC(F)F)c(S(C)(=O)=O)c3)ccc2n1` [Example 206, N^2-((R)-1-(1H-1,2,4-triazol-1-yl)propan-2-yl)-6-(4-(difluoromethoxy)-3-(methylsulfonyl)phenyl)-N^4-(2,2,2-trifluoroethyl) pyrido[3,2-d]pyrimidine-2,4-diamine]: in series [1], the EC50 was in the range of 250 to 2000 nM. Further, the CC50 at 3 days in series [2] (Table 2, 3 days incubation) is over 10000 nM.
Taken in the same sequence, the figures for `COCC#Cc1ccc2nc(NCc3ccc(S(N)(=O)=O)cc3)nc(NCC(F)(F)F)c2n1` [Example 283, 4-((6-(3-methoxyprop-1-ynyl)-4-(2,2,2-trifluoroethylamino)pyrido[3,2-d]pyrimidin-2-ylamino)methyl)benzene-sulfonamide] were 100 to 250 nM and over 10000 nM.
The like results for `C[C@@H](Nc1nc(NCC(F)(F)F)c2nc(-c3cncc(S(C)(=O)=O)c3)ccc2n1)c1ccc(S(N)(=O)=O)cc1` [Example 156, 4-((R)-1-(6-(5-(methylsulfonyl)pyridin-3-yl)-4-(2,2,2-trifluoroethylamino)pyrido [3,2-d]pyrimidin-2-ylamino)ethyl)benzenesulfonamide] were, in that order, 250 to 2000 nM and over 10000 nM.
Turning to `COCCNc1nc(NCC(F)(F)F)c2nc(-c3cccc(S(C)(=O)=O)c3)ccc2n1` [Example 139, N^2-(2-methoxyethyl)-6-(3-(methylsulfonyl)phenyl)-N^4-(2,2,2-trifluoroethyl)pyrido [3,2-d]pyrimidine-2,4-diamine], in series [1], the EC50 is under 100 nM. This compound came in with a CC50 at 3 days in series [2] (Table 2, 3 days incubation) of over 10000 nM.
In series [1], `C[C@@H](Nc1nc(O[C@@H]2C[C@@H]3C[C@@H]3C2)c2nc(C#CC3CC3)ccc2n1)c1ccc(S(N)(=O)=O)cc1` [Example 299, 4-((R)-1-(4-((1S,3r,5R)-bicyclo [3.1.0]hexan-3-yloxy)-6-(2-cyclopropylethynyl)pyrido [3,2-d]pyrimidin-2-ylamino)ethyl)benzenesulfonamide] returned an EC50 of under 100 nM. The compound also yielded a cytotoxic concentration (CC50) at 3 days in series [2] (Table 2, 3 days incubation) of 1000 to 10000 nM.
Regarding `Fc1ccc(-c2ccc3nc(NCc4ccc(-n5cncn5)cc4)nc(NC4(C(F)(F)F)CC4)c3n2)cc1` [Example 81, N^2-(4-(1H-1,2,4-triazol-1-yl)benzyl)-6-(4-fluorophenyl)-N^4-(1-(trifluoromethyl)cyclopropyl)pyrido[3,2-d] pyrimidine-2,4-diamine], the EC50 in series [1] lay within 250 to 2000 nM. The compound further showed a CC50 at 3 days in series [2] (Table 2, 3 days incubation) of 1000 to 10000 nM.
Take `NS(=O)(=O)c1ccc(CNc2nc(NC3(C(F)(F)F)CC3)c3nc(C#CC4CC4)ccc3n2)cc1` [Example 92, 4-((6-(2-cyclopropylethynyl)-4-(1-(trifluoromethyl)cyclopropyl-amino)pyrido[3,2-d]pyrimidin-2-ylamino)methyl)benzene-sulfonamide]: in series [1], the EC50 is under 100 nM. The 50% cytotoxic concentration (CC50) at 3 days in series [2] (Table 2, 3 days incubation) was 1000 to 10000 nM.
Compound `C[C@@H](Nc1nc(OC2CC2)c2nc(-c3ccc(F)cc3)ccc2n1)c1ccc(S(N)(=O)=O)cc1` [Example 13, (R)-4-{1-[6-(4-Fluoro-phenyl)-4-cyclopropoxy-pyrido[3,2-d]pyrimidin-2-ylamino]-ethyl}-benzenesulfonamide] displayed an EC50 in series [1] of 100 to 250 nM. In series [2] (Table 1, 3 days incubation), this compound had a CC50 at 3 days of 10000 to 25000 nM.
Regarding `N#Cc1cc(F)ccc1-c1ccc2nc(NCc3cccc(S(N)(=O)=O)c3)nc(NC3(C(F)(F)F)CC3)c2n1` [Example 98, 3-((6-(2-cyano-4-fluorophenyl)-4-(1-(trifluoromethyl)cyclopropyl-amino)pyrido[3,2-d]pyrimidin-2-ylamino)methyl)benzene-sulfonamide], the EC50 in series [1] was under 100 nM. Further, in series [2] (Table 2, 3 days incubation), the CC50 at 3 days fell in the range of 1000 to 10000 nM.
In turn, `C[C@H](Nc1nc(NCc2ccc(S(N)(=O)=O)cc2)nc2ccc(C#CC3CC3)nc12)C(F)(F)F` [Example 290, (S)-4-((6-(2-cyclopropyl-ethynyl)-4-(1,1,1-trifluoro-propan-2-ylamino)pyrido [3,2-d]pyrimidin-2-ylamino)methyl)benzene-sulfonamide] yielded an EC50 in series [1] of under 100 nM. Further, the CC50 at 3 days in series [2] (Table 2, 3 days incubation) fell in the range of 1000 to 10000 nM.
`FC(F)(F)CNc1nc(NCc2ccc(-n3cncn3)cc2)nc2ccc(-c3ccc(OC4CCC4)nc3)nc12` [Example 250, N^2-(4-(1H-1,2,4-triazol-1-yl)benzyl)-6-(6-cyclobutoxy-pyridin-3-yl)-N^4-(2,2,2-trifluoroethyl)pyrido[3,2-d] pyrimidine-2,4-diamine] had an EC50 in series [1] of under 100 nM. For the same compound, the CC50 at 3 days in series [2] (Table 2, 3 days incubation) lay within 1000 to 10000 nM.
For `CCOc1ccc(-c2ccc3nc(NCc4ccc(-n5cncn5)cc4)nc(NCC(F)(F)F)c3n2)cc1S(N)(=O)=O` [Example 243, 5-(2-(4-(1H-1,2,4-triazol-1-yl)benzylamino)-4-(2,2,2-trifluoroethylamino)pyrido [3,2-d]pyrimidin-6-yl)-2-ethoxybenzenesulfonamide], in series [1], the EC50 was under 100 nM. In series [2] (Table 2, 3 days incubation), this compound returned a CC50 at 3 days of over 10000 nM.
`CC(C)(C)Oc1nc(NCc2ccc(-n3cncn3)cc2)nc2ccc(-c3cccc(S(C)(=O)=O)c3)nc12` [Example 197, N-(4-(1H-1,2,4-triazol-1-yl)benzyl)-4-tert-butoxy-6-(3-(methylsulfonyl)phenyl)pyrido [3,2-d]pyrimidin-2-amine] yielded an EC50 in series [1] of under 100 nM. The CC50 at 3 days in series [2] (Table 2, 3 days incubation) is over 10000 nM.
